{
  "source": "ChEMBL document CHEMBL3045545",
  "about": "“Control of chickpea blight disease caused by Didymella rabiei by mixing resistance inducer and contact fungicide” (2011)",
  "key": {"Ascochyta rabiei [1]": {"tested_on": "Ascochyta rabiei", "test": "Antifungal activity against Didymella rabiei inoculated in chickpea plant assessed as reduction in chickpea blight disease at 100 ppm compound single spray 24 hr before inoculation by green house experiment", "assay_type": "functional"}, "Ascochyta rabiei [2]": {"tested_on": "Ascochyta rabiei", "test": "Antifungal activity against Didymella rabiei isolate ARL1 inoculated in chickpea seedlings assessed as reduction in chickpea blight disease at 100 ppm compound treated 24 hr prior seedlings by green house experiment", "assay_type": "functional, organism-based"}, "Ascochyta rabiei [3]": {"tested_on": "Ascochyta rabiei", "test": "Antifungal activity against Didymella rabiei in chickpea plant assessed as dry grain yield at 50 ppm compound three sprays 15 intervals (Control = 0.268 t/ha)", "assay_type": "functional"}, "Ascochyta rabiei [4]": {"tested_on": "Ascochyta rabiei", "test": "Antifungal activity against Didymella rabiei in chickpea plant assessed as dry grain yield at 50 ppm compound two sprays 15 intervals (Control = 0.268 t/ha)", "assay_type": "functional"}, "Ascochyta rabiei [5]": {"tested_on": "Ascochyta rabiei", "test": "Antifungal activity against Didymella rabiei in chickpea plant assessed as dry grain yield at 50 ppm compound single spray 15 intervals (Control = 0.268 t/ha)", "assay_type": "functional"}, "Ascochyta rabiei [6]": {"tested_on": "Ascochyta rabiei", "test": "Antifungal activity against Didymella rabiei in chickpea plant assessed as dry grain yield at 50 ppm compound treated by seeds soaking for 24 hr (Control = 0.268 t/ha)", "assay_type": "functional"}, "Ascochyta rabiei [7]": {"tested_on": "Ascochyta rabiei", "test": "Antifungal activity against Didymella rabiei in chickpea plant assessed as chickpea blight disease severity at 50 ppm compound three sprays 15 intervals (Control = 45.8%)", "assay_type": "functional"}, "Ascochyta rabiei [8]": {"tested_on": "Ascochyta rabiei", "test": "Antifungal activity against Didymella rabiei in chickpea plant assessed as chickpea blight disease severity at 50 ppm compound two sprays 15 intervals (Control = 45.8%)", "assay_type": "functional"}, "Ascochyta rabiei [9]": {"tested_on": "Ascochyta rabiei", "test": "Antifungal activity against Didymella rabiei in chickpea plant assessed as chickpea blight disease severity at 50 ppm compound single spray 15 intervals (Control = 45.8%)", "assay_type": "functional"}, "Ascochyta rabiei [10]": {"tested_on": "Ascochyta rabiei", "test": "Antifungal activity against Didymella rabiei in chickpea plant assessed as chickpea blight disease severity at 50 ppm compound treated by seeds soaking for 24 hr (Control = 45.8%)", "assay_type": "functional"}, "Ascochyta rabiei [11]": {"tested_on": "Ascochyta rabiei", "test": "Antifungal activity against Didymella rabiei inoculated in chickpea plant assessed as reduction in chickpea blight disease at 100 ppm compound single spray 96 or 120 hr before inoculation by green house experiment", "assay_type": "functional, organism-based"}, "Ascochyta rabiei [12]": {"tested_on": "Ascochyta rabiei", "test": "Antifungal activity against Didymella rabiei inoculated in chickpea plant assessed as reduction in chickpea blight disease at 100 ppm compound single spray 24 to 72 hr before inoculation by green house experiment", "assay_type": "functional, organism-based"}},
  "note": "Activity calls are given as the source filed them. The calls are words filed in the database; no cut-off is given here.",
  "data": [
    {"compound": "CSC(=O)c1cccc2nnsc12", "note": "[ACIBENZOLAR-S-METHYL]", "values": [
      {"measurement": "inhibition at 100 ppm", "setting": "Ascochyta rabiei [1]", "result": 72.4, "unit": "%"},
      {"measurement": "inhibition", "setting": "Ascochyta rabiei [2]", "result": "Active"},
      {"measurement": "Crop_yield", "setting": "Ascochyta rabiei [3]", "result": 0.922, "unit": "tons/ha"},
      {"measurement": "Crop_yield", "setting": "Ascochyta rabiei [4]", "result": 1.066, "unit": "tons/ha"},
      {"measurement": "Crop_yield", "setting": "Ascochyta rabiei [5]", "result": 0.52, "unit": "tons/ha"},
      {"measurement": "Crop_yield", "setting": "Ascochyta rabiei [6]", "result": 0.456, "unit": "tons/ha"},
      {"measurement": "Activity", "setting": "Ascochyta rabiei [7]", "result": 4.2, "unit": "%"},
      {"measurement": "Activity", "setting": "Ascochyta rabiei [8]", "result": 7.5, "unit": "%"},
      {"measurement": "Activity", "setting": "Ascochyta rabiei [9]", "result": 17.5, "unit": "%"},
      {"measurement": "Activity", "setting": "Ascochyta rabiei [10]", "result": 22.5, "unit": "%"},
      {"measurement": "inhibition", "setting": "Ascochyta rabiei [11]", "result": "inactive"},
      {"measurement": "inhibition", "setting": "Ascochyta rabiei [12]", "result": "Active"}
    ]}
  ]
}
